Experimental findings from patent US10085955B2, “Methods and compositions for treatment of demyelinating diseases” (Pathologica LLC, priority 2013, dated 2018) are described below.

For data set [1], the system named is collagen-induced arthritis (CIA) model. Put plainly: Murine collagen-induced arthritis. The data set is classed as in vivo, DBA/1 mice. The conditions noted are these: mice, 25 mg/kg PO BID. From the text:
The collagen-induced arthritis (CIA) model is considered a suitable model for studying potential drugs active in human arthritis because of the many immunological and pathological similarities to human rheumatoid arthritis (RA), the involvement of localized major histocompatibility, […] class-II-restricted T helper lymphocyte activation, and the similarity of histological lesions. See, e.g., Rosloniec E F et al., “Collagen-Induced Arthritis,” Current Protocols in Immunology, Unit 15.5 (1993). See also the model using a monoclonal antibody to CD18 and VLA-4 integrins described in Issekutz, A. C. et al., Immunology (1996) 88:569. […]
Data. […] Edema is measured on days 18-20, 22-27, and 29-34. Inflammation is assessed by infiltration of inflammatory cells and edema. Post-euthanasia, terminal blood draws are collected, heparinized, and frozen at −70° C. until analyzed for cytokines such as osteopontin, TNFalpha, IL-1, CRP, MCP1, MIP-lbeta, RANTES, IFNgamma, TGFbeta, IP-10, IL-17, and MMP9. […] Bone resorption is quantified by presence of osteoclasts, defects in or loss of medullary trabecular or cortical bone. Cartilage damage is assessed by examining the severity and spread of chondrocyte loss and collagen disruption. […]
Statistical Analysis. Clinical data for paw scores (means for animal) are analyzed by determining the area under the dosing curve (AUC) for days 1-15. […]

Data set [2] in a line: Rhesus macaque single-dose pharmacokinetics. The conditions noted are these: plasma, mean. The data set is classed as in vivo, rhesus monkeys. How it is done:
Two groups of three male rhesus monkeys were fasted overnight before being administered the test article, MGBG, as either a single bolus intravenous dose of 1 mg/kg (Group 1) or as a single oral gavage dose of 10 mg/kg (Group 2). Dose formulation analysis verified administered dose solutions as within 14% of targeted concentrations of 1 and 10 mg/kg for Groups 1 and 2, respectively.
Blood samples were collected into tubes containing lithium heparin from the femoral vein/artery (approximately 1.0 mL) for plasma MGBG concentration measurement from all intravenously dosed animals prior to dosing and at approximately T=0.083 (5 min), 0.25 (15 min), 0.5 (30 min), 1, 2, 4, 8, and 24 hours after dosing. Blood samples for plasma MGBG concentration measurement were collected from all orally dosed animals prior to dosing at approximately T=1, 2, 4, 8, 12, 24, and 36 hours after dosing. Food was also withheld through the first four hours of blood sample collection.
The samples were centrifuged under refrigerated conditions following completion of sample collection at each interval. The resulting plasma was separated and stored frozen at approximately −70° C. until analysis.
PK analysis was performed on the individual plasma concentration-time profiles for MGBG using the WinNonlin non-compartmental approach (linear trapezoidal rule for AUC calculations). Nominal dose values and sampling times were used for calculations. All MGBG plasma concentration measurements reported as BQL (<2.51 ng/mL) were set equal to zero for the purpose of analysis. Following IV and PO administration of MGBG, plasma PK disposition parameters were calculated using the WinNonlin default selection criteria for the selection of the Lambda Z.
Consequently, a model-dependent two-compartmental analysis was used to calculate bioavailability.

Details of data set [3]: species or system beagle dogs. The conditions noted are these: male, beagle, dog, in vivo. As to the method: Two groups of three male beagle dogs weighing 9.0-10.7 kg and aged 8-30 months were fasted overnight before being administered the test article, MGBG, as either a single bolus intravenous dose of 1 mg/kg (Group 1) or as a single oral gavage dose of 10 mg/kg (Group 2). Dose formulation analysis verified administered dose solutions as within 17% of targeted concentrations of 1 and 10 mg/kg for Groups 1 and 2, respectively.
Blood samples (approximately 2.0 mL) were collected for plasma MGBG concentration measurement from all intravenously dosed animals prior to dosing and at approximately T=0.083 (5 min), 0.25 (15 min), 0.5 (30 min), 1, 2, 4, 8, and 24 hours after dosing. A similar procedure was used with orally dosed animals was used, except that collection took place at T=1, 2, 4, 8, 12, 24, and 36 hours after dosing. The samples were centrifuged under refrigerated conditions following completion of sample collection at each interval. The resulting plasma was separated and stored frozen at approximately −70° C. until analysis.

[4] abbreviates: oral gavage 10 mg/kg single dose.

Molecules are shown by their SMILES. Where two headings read alike, the source gives them in different places.

For `CC(/C=N/NC(=N)N)=N\NC(=N)N` [MGBG, 1,1′ [methylethanediylidene]dinitrilodiguanidine], in data set [1], the “early phase of paw swelling/inflammation” value is on record as “did affect the early phase of paw swelling/inflammation” and the “efficacy as a disease-modifying anti-rheumatic drug (DMARD)” value is “not efficacious”. Also, in data set [2] (IV 1 mg/kg single bolus), the Clobs is given as 13.7 mL/min/kg and the VSSobs worked out at 13.2 L/kg. Moreover, in data set [2] (setting [4]), the Clobs came out at 6.63 mL/min/kg and the Vd worked out at 13.2 L/kg. For the same compound, in data set [3] (iv, 1 mg/kg), the Clobs turned out to be 13.7 mL/min/kg and the VSSobs is 14.6 L/kg. In data set [3] (po, 10 mg/kg), this compound yielded a Clobs of 8.29 mL/min/kg and a Vd of 14.6 L/kg.
